Numbered stars: 1 amine (or outer) side, 2 acyl side, 3 side chain; on linkers, the order of the positions; unused ones are H or OH. Bridge positions count the residues as written; N and C are the ends. Square brackets hold non-standard residues; d marks the D form. Peptide text beside a SMILES is read from it. I, II: the chains in the order shown. * marks the point of attachment. Phe(4-tBu) = CC(C)(C)c1ccc(C[C@H](N)C(=O)O)cc1; 2Nal = N[C@@H](Cc1ccc2ccccc2c1)C(=O)O; Diglycolyl = O=C(COCC(=O)[*:2])[*:1]; Oleoyl = CCCCCCCC/C=C\CCCCCCCC(=O)*; NMeR = CN[C@@H](CCCNC(=N)N)C(=O)O; Palmitoyl = CCCCCCCCCCCCCCCC(=O)*; Myristoyl = CCCCCCCCCCCCCC(=O)*; β3hE = N[C@@H](CCC(=O)O)CC(=O)O; Pen = CC(C)(S)[C@H](N)C(=O)O; hLeu = CC(C)CC[C@H](N)C(=O)O; Lauroyl = CCCCCCCCCCCC(=O)*; Isovaleryl = CC(C)CC(=O)*; Hexanoyl = CCCCCC(=O)*
Target: α4β7 (Homo sapiens, UniProt P13612+P26010)
Sequence (P13612 34-1032): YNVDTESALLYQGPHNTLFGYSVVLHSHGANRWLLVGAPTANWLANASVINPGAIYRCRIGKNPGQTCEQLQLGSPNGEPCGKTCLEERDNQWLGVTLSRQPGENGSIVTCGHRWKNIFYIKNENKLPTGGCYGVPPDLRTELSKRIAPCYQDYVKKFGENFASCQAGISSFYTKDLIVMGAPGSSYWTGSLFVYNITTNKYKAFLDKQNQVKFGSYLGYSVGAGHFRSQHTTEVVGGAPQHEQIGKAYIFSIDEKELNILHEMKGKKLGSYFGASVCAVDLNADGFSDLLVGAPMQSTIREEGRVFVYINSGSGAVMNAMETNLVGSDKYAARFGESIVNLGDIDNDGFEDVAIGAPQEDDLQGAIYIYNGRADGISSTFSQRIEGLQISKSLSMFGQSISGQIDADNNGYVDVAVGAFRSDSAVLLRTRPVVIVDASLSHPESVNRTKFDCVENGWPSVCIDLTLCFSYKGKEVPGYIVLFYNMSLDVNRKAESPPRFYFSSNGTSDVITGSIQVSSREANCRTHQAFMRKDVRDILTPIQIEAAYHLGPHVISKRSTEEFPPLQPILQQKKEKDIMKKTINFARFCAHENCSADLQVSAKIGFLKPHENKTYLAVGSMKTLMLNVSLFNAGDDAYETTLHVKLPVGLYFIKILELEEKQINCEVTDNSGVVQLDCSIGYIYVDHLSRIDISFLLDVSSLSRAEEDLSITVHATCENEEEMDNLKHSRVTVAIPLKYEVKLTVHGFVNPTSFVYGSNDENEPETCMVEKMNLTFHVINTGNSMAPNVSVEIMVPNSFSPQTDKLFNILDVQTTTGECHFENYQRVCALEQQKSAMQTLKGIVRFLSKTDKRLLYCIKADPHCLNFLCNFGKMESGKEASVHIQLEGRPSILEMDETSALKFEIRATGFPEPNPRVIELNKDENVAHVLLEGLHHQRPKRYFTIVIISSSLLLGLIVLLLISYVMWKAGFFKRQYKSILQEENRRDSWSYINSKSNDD
Sequence (P26010 20-798): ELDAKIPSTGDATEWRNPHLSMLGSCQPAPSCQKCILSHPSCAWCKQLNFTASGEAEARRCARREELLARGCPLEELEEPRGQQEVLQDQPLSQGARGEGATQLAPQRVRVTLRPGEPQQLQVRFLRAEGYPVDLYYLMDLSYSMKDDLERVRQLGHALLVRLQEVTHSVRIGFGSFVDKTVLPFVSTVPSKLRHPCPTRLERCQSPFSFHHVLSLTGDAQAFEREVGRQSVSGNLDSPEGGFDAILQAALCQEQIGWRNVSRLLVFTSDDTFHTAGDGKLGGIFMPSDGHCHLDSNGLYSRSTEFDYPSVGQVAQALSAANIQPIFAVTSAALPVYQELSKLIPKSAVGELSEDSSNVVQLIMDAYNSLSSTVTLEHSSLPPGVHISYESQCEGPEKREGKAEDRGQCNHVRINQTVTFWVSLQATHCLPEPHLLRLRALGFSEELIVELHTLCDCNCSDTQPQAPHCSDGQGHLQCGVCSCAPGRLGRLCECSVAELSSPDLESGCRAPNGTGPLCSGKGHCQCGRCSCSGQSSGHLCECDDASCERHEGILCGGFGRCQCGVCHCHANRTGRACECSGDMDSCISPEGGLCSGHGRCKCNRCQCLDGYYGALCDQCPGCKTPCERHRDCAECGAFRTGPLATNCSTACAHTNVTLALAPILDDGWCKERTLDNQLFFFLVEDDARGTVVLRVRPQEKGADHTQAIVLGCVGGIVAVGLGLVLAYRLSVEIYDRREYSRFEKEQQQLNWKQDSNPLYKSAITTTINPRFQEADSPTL
Test: α4β7-MAdCAM Cell Adhesion Assay (RPMI 8866 human cells)
Type: cell-based
Set-up: host or cells: RPMI 8866 human B lymphoblastoid cells
Conditions: Table 3-B, Potency (α4β7); range classes; read-out: α4β7 cell (Hu) IC50
Outline: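 Washed RPMI 8866 cells (200,000/well) in DMEM with 0.1% BSA, 10 mM HEPES pH 7, 1 mM MnCl2 adhered to rh MAdCAM-1/Fc-coated wells with serially diluted peptides, 30-45 min at 37 °C. After three washes, bound cells quantified by MTT, A570, cell-free background subtracted for dose response.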

| Compound | IC50 [µM] |
| --- | --- |
| CC(=O)N[C@@H]1C(=O)N(C)[C@@H](CCCNC(=N)N)C(=O)N[C@@H](CO)C(=O)N[C@@H](CC(=O)O)C(=O)N[C@@H](CCC(C)C)C(=O)N[C@@H](CC(C)C)C(=O)N[C@H](C(=O)N[C@@H](Cc2ccc3ccccc3c2)C(=O)N[C@H](CCC(=O)O)C(N)=O)C(C)(C)SSC1(C)C [compound 161] (Ac-[Pen][NMeR]SD[hLeu]L[Pen][2Nal][dE]-NH2; disulfide 1-7) | 1 to 10 |
| CC(=O)N[C@@H]1C(=O)N(C)[C@@H](CCCNC(=N)N)C(=O)N[C@@H](CO)C(=O)N[C@@H](CC(=O)O)C(=O)N[C@@H]([C@@H](C)O)C(=O)N[C@@H](Cc2ccccc2)C(=O)N[C@H](C(=O)N[C@@H](Cc2ccc3ccccc3c2)C(=O)N[C@H](CCC(=O)O)C(N)=O)C(C)(C)SSC1(C)C [compound 162] (Ac-[Pen][NMeR]SDTF[Pen][2Nal][dE]-NH2; disulfide 1-7) | 1 to 10 |
| CC(=O)N[C@@H]1C(=O)N(C)[C@@H](CCCNC(=N)N)C(=O)N[C@@H](CO)C(=O)N[C@@H](CC(=O)O)C(=O)N[C@@H]([C@@H](C)O)C(=O)N[C@@H](CCC(N)=O)C(=O)N[C@H](C(=O)N[C@@H](Cc2ccc3ccccc3c2)C(=O)N[C@H](CCC(=O)O)C(N)=O)C(C)(C)SSC1(C)C [compound 163] (Ac-[Pen][NMeR]SDTQ[Pen][2Nal][dE]-NH2; disulfide 1-7) | 1 to 10 |
| CC(=O)N[C@@H]1C(=O)N(C)[C@@H](CCCNC(=N)N)C(=O)N[C@@H](CO)C(=O)N[C@@H](CC(=O)O)C(=O)N[C@@H]([C@@H](C)O)C(=O)N[C@@H](Cc2ccc(O)cc2)C(=O)N[C@H](C(=O)N[C@@H](Cc2ccc3ccccc3c2)C(=O)N[C@H](CCC(=O)O)C(N)=O)C(C)(C)SSC1(C)C [compound 164] (Ac-[Pen][NMeR]SDTY[Pen][2Nal][dE]-NH2; disulfide 1-7) | 1 to 10 |
| CCCCCC(=O)N[C@@H]1C(=O)N(C)[C@@H](CCCNC(=N)N)C(=O)N[C@@H](CO)C(=O)N[C@@H](CC(=O)O)C(=O)N[C@@H]([C@@H](C)O)C(=O)N[C@@H](CC(C)C)C(=O)N[C@H](C(=O)N[C@@H](Cc2ccc(C(C)(C)C)cc2)C(=O)N[C@@H](CCC(=O)O)CC(=O)N[C@H](CCCCN)C(N)=O)C(C)(C)SSC1(C)C [compound 176] (Hexanoyl-[Pen][NMeR]SDTL[Pen][Phe(4-tBu)][β3hE][dK]-NH2; disulfide 1-7) | 0.05 to 0.1 |
| CC(C)CC(=O)N[C@@H]1C(=O)N(C)[C@@H](CCCNC(=N)N)C(=O)N[C@@H](CO)C(=O)N[C@@H](CC(=O)O)C(=O)N[C@@H]([C@@H](C)O)C(=O)N[C@@H](CC(C)C)C(=O)N[C@H](C(=O)N[C@@H](Cc2ccc(C(C)(C)C)cc2)C(=O)N[C@@H](CCC(=O)O)CC(=O)N[C@H](CCCCN)C(N)=O)C(C)(C)SSC1(C)C [compound 177] (Isovaleryl-[Pen][NMeR]SDTL[Pen][Phe(4-tBu)][β3hE][dK]-NH2; disulfide 1-7) | 0.05 to 0.1 |
| CCCCCCCCCCCCCCCC(=O)N[C@@H]1C(=O)N(C)[C@@H](CCCNC(=N)N)C(=O)N[C@@H](CO)C(=O)N[C@@H](CC(=O)O)C(=O)N[C@@H]([C@@H](C)O)C(=O)N[C@@H](CC(C)C)C(=O)N[C@H](C(=O)N[C@@H](Cc2ccc(C(C)(C)C)cc2)C(=O)N[C@@H](CCC(=O)O)CC(=O)N[C@H](CCCCN)C(N)=O)C(C)(C)SSC1(C)C [compound 178] (Palmitoyl-[Pen][NMeR]SDTL[Pen][Phe(4-tBu)][β3hE][dK]-NH2; disulfide 1-7) | 1 to 10 |
| CCCCCCCCCCCC(=O)N[C@@H]1C(=O)N(C)[C@@H](CCCNC(=N)N)C(=O)N[C@@H](CO)C(=O)N[C@@H](CC(=O)O)C(=O)N[C@@H]([C@@H](C)O)C(=O)N[C@@H](CC(C)C)C(=O)N[C@H](C(=O)N[C@@H](Cc2ccc(C(C)(C)C)cc2)C(=O)N[C@@H](CCC(=O)O)CC(=O)N[C@H](CCCCN)C(N)=O)C(C)(C)SSC1(C)C [compound 179] (Lauroyl-[Pen][NMeR]SDTL[Pen][Phe(4-tBu)][β3hE][dK]-NH2; disulfide 1-7) | 0.1 to 0.5 |
| CCCCCCCC/C=C\CCCCCCCC(=O)N[C@@H]1C(=O)N(C)[C@@H](CCCNC(=N)N)C(=O)N[C@@H](CO)C(=O)N[C@@H](CC(=O)O)C(=O)N[C@@H]([C@@H](C)O)C(=O)N[C@@H](CC(C)C)C(=O)N[C@H](C(=O)N[C@@H](Cc2ccc(C(C)(C)C)cc2)C(=O)N[C@@H](CCC(=O)O)CC(=O)N[C@H](CCCCN)C(N)=O)C(C)(C)SSC1(C)C [compound 180] (Oleoyl-[Pen][NMeR]SDTL[Pen][Phe(4-tBu)][β3hE][dK]-NH2; disulfide 1-7) | 1 to 10 |
| CCCCCCCCCCCCCC(=O)N[C@@H]1C(=O)N(C)[C@@H](CCCNC(=N)N)C(=O)N[C@@H](CO)C(=O)N[C@@H](CC(=O)O)C(=O)N[C@@H]([C@@H](C)O)C(=O)N[C@@H](CC(C)C)C(=O)N[C@H](C(=O)N[C@@H](Cc2ccc(C(C)(C)C)cc2)C(=O)N[C@@H](CCC(=O)O)CC(=O)N[C@H](CCCCN)C(N)=O)C(C)(C)SSC1(C)C [compound 181] (Myristoyl-[Pen][NMeR]SDTL[Pen][Phe(4-tBu)][β3hE][dK]-NH2; disulfide 1-7) | 1 to 10 |
| CC[C@H](C)[C@@H]1NC(=O)[C@H](CC(=O)O)NC(=O)[C@H](CO)NC(=O)[C@H](CCCNC(=N)N)N(C)C(=O)[C@@H](NC(C)=O)C(C)(C)SSC(C)(C)[C@@H](C(=O)N[C@@H](Cc2ccc(C(C)(C)C)cc2)C(=O)N[C@@H](CCC(=O)O)CC(=O)N[C@H](CCCCNC(=O)CN(CC(=O)NCCCC[C@@H](NC(=O)C[C@H](CCC(=O)O)NC(=O)[C@H](Cc2ccc(C(C)(C)C)cc2)NC(=O)[C@H]2NC(=O)[C@H](CC(C)C)NC(=O)[C@H]([C@@H](C)CC)NC(=O)[C@H](CC(=O)O)NC(=O)[C@H](CO)NC(=O)[C@H](CCCNC(=N)N)N(C)C(=O)[C@@H](NC(C)=O)C(C)(C)SSC2(C)C)C(N)=O)C(=O)CCN)C(N)=O)NC(=O)[C@H](CC(C)C)NC1=O [compound 186] | 0.1 to 0.5 |
| CC(=O)N[C@@H]1C(=O)N(C)[C@@H](CCCNC(=N)N)C(=O)N[C@@H](CO)C(=O)N[C@@H](CC(=O)O)C(=O)N[C@@H]([C@@H](C)O)C(=O)N[C@@H](CCC(N)=O)C(=O)N[C@H](C(=O)N[C@@H](Cc2ccc(C(C)(C)C)cc2)C(=O)N[C@@H](CCC(=O)O)CC(=O)N[C@H](CCCCNC(=O)CN(CC(=O)NCCCC[C@@H](NC(=O)C[C@H](CCC(=O)O)NC(=O)[C@H](Cc2ccc(C(C)(C)C)cc2)NC(=O)[C@H]2NC(=O)[C@H](CCC(N)=O)NC(=O)[C@H]([C@@H](C)O)NC(=O)[C@H](CC(=O)O)NC(=O)[C@H](CO)NC(=O)[C@H](CCCNC(=N)N)N(C)C(=O)[C@@H](NC(C)=O)C(C)(C)SSC2(C)C)C(N)=O)C(=O)CCN)C(N)=O)C(C)(C)SSC1(C)C [compound 187] | 0.1 to 0.5 |
| CC[C@H](C)[C@@H]1NC(=O)[C@H](CCC(N)=O)NC(=O)[C@H](CO)NC(=O)[C@H](CCCNC(=N)N)N(C)C(=O)[C@@H](NC(C)=O)C(C)(C)SSC(C)(C)[C@@H](C(=O)N[C@@H](Cc2ccc(C(C)(C)C)cc2)C(=O)N[C@@H](CCC(=O)O)CC(=O)N[C@H](CCCCNC(=O)COCC(=O)NCCCC[C@@H](NC(=O)C[C@H](CCC(=O)O)NC(=O)[C@H](Cc2ccc(C(C)(C)C)cc2)NC(=O)[C@H]2NC(=O)[C@H](CCC(N)=O)NC(=O)[C@H]([C@@H](C)CC)NC(=O)[C@H](CCC(N)=O)NC(=O)[C@H](CO)NC(=O)[C@H](CCCNC(=N)N)N(C)C(=O)[C@@H](NC(C)=O)C(C)(C)SSC2(C)C)C(N)=O)C(N)=O)NC(=O)[C@H](CCC(N)=O)NC1=O [compound 189] (I: Ac-[Pen][NMeR]SQIQ[Pen][Phe(4-tBu)][β3hE][dK]-NH2 / II: Ac-[Pen][NMeR]SQIQ[Pen][Phe(4-tBu)][β3hE][dK]-NH2; disulfide I:1-I:7, II:1-II:7; linker I:10-II:10 via Diglycolyl) | 10 to 100 |
| CC[C@H](C)[C@@H]1NC(=O)[C@H](CCC(N)=O)NC(=O)[C@H](CO)NC(=O)[C@H](CCCNC(=N)N)N(C)C(=O)[C@@H](NC(C)=O)C(C)(C)SSC(C)(C)[C@@H](C(=O)N[C@@H](Cc2ccc(C(C)(C)C)cc2)C(=O)N[C@@H](CCC(=O)O)CC(=O)N[C@H](CCCCNC(=O)CN(CC(=O)NCCCC[C@@H](NC(=O)C[C@H](CCC(=O)O)NC(=O)[C@H](Cc2ccc(C(C)(C)C)cc2)NC(=O)[C@H]2NC(=O)[C@H](CCC(N)=O)NC(=O)[C@H]([C@@H](C)CC)NC(=O)[C@H](CCC(N)=O)NC(=O)[C@H](CO)NC(=O)[C@H](CCCNC(=N)N)N(C)C(=O)[C@@H](NC(C)=O)C(C)(C)SSC2(C)C)C(N)=O)C(=O)CCN)C(N)=O)NC(=O)[C@H](CCC(N)=O)NC1=O [compound 190] | > 100 |
| CC(=O)N[C@@H]1C(=O)N(C)[C@@H](CCCNC(=N)N)C(=O)N[C@@H](CO)C(=O)N[C@@H](CC(=O)O)C(=O)N[C@@H](CC(=O)O)C(=O)N[C@@H](CC(C)C)C(=O)N[C@H](C(=O)N[C@@H](Cc2ccc(C(C)(C)C)cc2)C(=O)N[C@@H](CCC(=O)O)CC(=O)N[C@H](CCCCNC(=O)CN(CC(=O)NCCCC[C@@H](NC(=O)C[C@H](CCC(=O)O)NC(=O)[C@H](Cc2ccc(C(C)(C)C)cc2)NC(=O)[C@H]2NC(=O)[C@H](CC(C)C)NC(=O)[C@H](CC(=O)O)NC(=O)[C@H](CC(=O)O)NC(=O)[C@H](CO)NC(=O)[C@H](CCCNC(=N)N)N(C)C(=O)[C@@H](NC(C)=O)C(C)(C)SSC2(C)C)C(N)=O)C(=O)CCN)C(N)=O)C(C)(C)SSC1(C)C [compound 191] | 10 to 100 |

Source: patent US9809623B2, “α4β7 peptide monomer and dimer antagonists” (Protagonist Therapeutics, Inc., priority 2014, dated 2017)
